Reference: PubChem BioAssay AID2060620 (Molecular Pharmacology Branch, DTP, NCI, 2025)
Where “and” joins values, the source holds several entries; their conditions need not be identical. Equal entries are not always repeated.

System: 328373-195-R-J1-PDC complex spheroids, viability % test/control
Assay: Anticancer human tumor 328373-195-R-J1-PDC patient-derived head and neck squamous carcinoma cell line growth inhibition [CLK]
Details: for viability, T/C: stronger effect = lower value
From the text: A high-throughput screen of multi-cell type tumor spheroids was designed to identify active combinations of […] and targeted small molecules. Complex spheroids include a stromal component modeled by human endothelial cells (HUVEC) and fibroblasts modeled by human mesenchymal stem cells (MSCs). The concentration ranges selected for each drug and investigational agent were based upon clinically achievable concentrations if the clinical Cmax of the agent was known.
Compounds. The drugs and investigational agents: cirtuvivint (SM08502; NSC835563), CC-671 (NSC850746), vemurafenib (NSC761431), tapotoclax (NSC804041), sotorasib (NSC818433), adagrasib (NSC831453), MRTX-1133 (NSC836407), BAY2416964 (NSC825713), copanlisib (NSC816437), inavolisib (NSC800729), abemaciclib (NSC768073), osimertinib (NSC779217), entinostat (NSC756642), eltanexor (KPT-8602, NSC794443), venetoclax (NSC766270), ceralasertib (NSC777638), bortezomib (NSC756655), olaparib (NSC753686), talazoparib (NSC767125), alisertib (NSC759677), peposertib (NSC802822), gemcitabine (NSC613327), 5-fluorouracil (NSC19893), SN-38 (NSC673596), oxaliplatin (NSC266046), paclitaxel (NSC125973), and doxorubicin (NSC123127), were obtained from the National Cancer Institute (NCI) Developmental Therapeutics Program Chemical Repository. The FDA-approved anticancer drug set is available from the Developmental Therapeutics Program at https://dtp.cancer.gov/organization/dscb/obtaining/available plates.htm. […] The stock solutions were prepared in dimethyl sulfoxide (DMSO, Sigma-Aldrich, St. Louis, MO, cat. D2650), except for the platinum complexes which were prepared in saline (Quality Biological, Gaithersburg, MD, cat. 114-055-101), at 800-fold the tested concentration and stored at -70 degrees C prior to their use. All drugs and investigational agents were tested over a range starting from a high concentration at or near the clinical Cmax and decreasing in half-log increments. If the clinical Cmax for an agent had not been determined, the highest concentration tested was 10 microM.
Cell Culture. All cells were maintained in an incubator at 37 degrees C and 5% CO2 with 95% humidity. The PDC lines were cultured according to standard operating procedures established by the NCI PDMR. Briefly, all PDCs were thawed and cultured in Matrigel-coated flasks prepared with a working solution of 1X Ham's F-12 nutrient mix, without supplementation (Invitrogen, Waltham, MA, cat. 11765054), 100 U/mL penicillin-streptomycin (Invitrogen, cat. 15140122), and 2.5% Matrigel (Corning Inc., Corning, NY, cat. 354248) for the first three passages. The 947758-054-R-J2-PDC line was cultured in 6B/Colon 1A media, which includes advanced DMEM/F-12 (Thermo Fisher Scientific, cat. 12634028), 10 mM HEPES (Thermo Fisher Scientific, cat. 15630080), 1X GlutaMAX supplement (Thermo Fisher Scientific, cat. 35050061), 0.1 mg/mL primocin (InvivoGen, cat. ant-pm-2), 10% defined fetal bovine serum, heat inactivated (HyClone Laboratories Inc., cat. SH30070.03HI), 1.25 mM N-Acetyl-L-cysteine (Sigma-Aldrich, cat. A9165), 10 mM nicotinamide (Sigma-Aldrich, cat. N0636), 1X B-27 supplement (Thermo Fisher Scientific, cat. 17504044), 1X N-2 supplement (Thermo Fisher Scientific, cat. 17502048), and 10 microM Y-27632 dihydrochloride (Tocris Bioscience, cat. 1254). The 876862-298-R-J1-PDC was cultured in 6E media, which includes all 6B/Colon 1A media components plus 50% L-WRN conditioned media (ATCC, cat. CRL-3276), 50 ng/mL recombinant human EGF recombinant protein (hEGF; Thermo Fisher Scientific, cat. PHG0311), 10 ng/mL recombinant human fibroblast growth factor 10 (hGFG-10; PeproTech, cat. 100-26), 1 ng/mL recombinant human fibroblast growth factor 2 (hFGF-2; PeproTech, cat. 100-18B), and 1 µM prostaglandin E2 (PGE2; Tocris, cat. 2296). The 227483-062-R1-J1-PDC line was cultured in Panc media, containing all 6E components except hFGF-2, with the addition of 500 nM SB-431542 (Selleckchem, cat. S1067) and 10 nM gastrin (Tocris, cat. 3006). […]

[1] = curve of first compound, second compound 0.0316 µM
[2] = curve of first compound, second compound 0.1 µM
[3] = curve of first compound, second compound 0.316 µM
[4] = curve of first compound, second compound 1 µM
[5] = curve of first compound, second compound 3.16 µM
[6] = curve of first compound, second compound 10 µM
[7] = second compound 0.0316 µM, first compound 0.0316 µM
[8] = second compound 0.0316 µM, first compound 0.1 µM
[9] = second compound 0.0316 µM, first compound 0.316 µM
[10] = second compound 0.0316 µM, first compound 1 µM
[11] = second compound 0.0316 µM, first compound 3.16 µM
[12] = second compound 0.0316 µM, first compound 10 µM
[13] = second compound 0.1 µM, first compound 0.0316 µM
[14] = second compound 0.1 µM, first compound 0.1 µM
[15] = second compound 0.1 µM, first compound 0.316 µM
[16] = second compound 0.1 µM, first compound 1 µM
[17] = second compound 0.1 µM, first compound 3.16 µM
[18] = second compound 0.1 µM, first compound 10 µM
[19] = second compound 0.316 µM, first compound 0.0316 µM
[20] = second compound 0.316 µM, first compound 0.1 µM
[21] = second compound 0.316 µM, first compound 0.316 µM
[22] = second compound 0.316 µM, first compound 1 µM
[23] = second compound 0.316 µM, first compound 3.16 µM
[24] = second compound 0.316 µM, first compound 10 µM
[25] = second compound 1 µM, first compound 0.0316 µM
[26] = second compound 1 µM, first compound 0.1 µM
[27] = second compound 1 µM, first compound 0.316 µM
[28] = second compound 1 µM, first compound 1 µM
[29] = second compound 1 µM, first compound 3.16 µM
[30] = second compound 1 µM, first compound 10 µM
[31] = second compound 3.16 µM, first compound 0.0316 µM
[32] = second compound 3.16 µM, first compound 0.1 µM
[33] = second compound 3.16 µM, first compound 0.316 µM
[34] = second compound 3.16 µM, first compound 1 µM
[35] = second compound 3.16 µM, first compound 3.16 µM
[36] = second compound 3.16 µM, first compound 10 µM
[37] = second compound 10 µM, first compound 0.0316 µM
[38] = second compound 10 µM, first compound 0.1 µM
[39] = second compound 10 µM, first compound 0.316 µM
[40] = second compound 10 µM, first compound 1 µM
[41] = second compound 10 µM, first compound 3.16 µM
[42] = second compound 10 µM, first compound 10 µM
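Further: spheroids exposed to the agents for 7 days.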

For CC(Nc1ccc2c(c1)OCCn1cc(N3C(=O)OCC3C(F)F)nc1-2)C(N)=O (stereo not drawn) + CN1CCN(c2cc(C(=O)Nc3cc4cc(-c5cnn(C)c5)ccc4cn3)ccn2)CC1, the IC50 [1] was > 10000 nM, the IC50 [2] was 2420 nM and the IC50 [3] was < 31.6 nM. For the same compound, the IC50 [4] was < 31.6 nM, the IC50 [5] was < 31.6 nM and the IC50 [6] was < 31.6 nM. The viability, T/C [7] was 90.4%, the viability, T/C [8] was 88.7% and the viability, T/C [9] was 87.1%. For the same compound, the viability, T/C [10] was 78.4%, the viability, T/C [11] was 58.1% and the viability, T/C [12] was 53.7%. It also gave a viability, T/C [13] of 75.8%, a viability, T/C [14] of 74.3% and a viability, T/C [15] of 73.7%. For the same compound, the viability, T/C [16] was 67.2%, the viability, T/C [17] was 44.2% and the viability, T/C [18] was 45.4%. For the same compound, the viability, T/C [19] was 34.3%, the viability, T/C [20] was 28.9% and the viability, T/C [21] was 28.8%. The viability, T/C [22] was 23.8%, the viability, T/C [23] was 17.7% and the viability, T/C [24] was 17.5%. The viability, T/C [25] was 0.25%, the viability, T/C [26] was 0.23% and the viability, T/C [27] was 1.16%. The viability, T/C [28] was 0.41%, the viability, T/C [29] was 1.23% and the viability, T/C [30] was 1.08%. The viability, T/C [31] was 1.31%, the viability, T/C [32] was 0.16% and the viability, T/C [33] was 1.05%. The viability, T/C [34] was 0.11%, the viability, T/C [35] was 2.46% and the viability, T/C [36] was 2.43%. It also gave a viability, T/C [37] of 0.1%, a viability, T/C [38] of 1.44% and a viability, T/C [39] of 0.26%. It also gave a viability, T/C [40] of 0.2%, a viability, T/C [41] of 2.32% and a viability, T/C [42] of 1.83%.
For CC1COCCN1c1cc(C2(S(C)(=N)=O)CC2)nc(-c2ccnc3[nH]ccc23)n1 (stereo not drawn) + CNC(=O)c1ccc(Nc2nc(OC3CCCC3)c3c(-c4ccc5nc(C)oc5c4)c[nH]c3n2)c(OC)c1, the IC50 [1] was 216 nM, the IC50 [2] was < 31.6 nM and the IC50 [3] was < 31.6 nM. The IC50 [4] was < 31.6 nM, the IC50 [5] was < 31.6 nM and the IC50 [6] was < 31.6 nM. It also gave a viability, T/C [7] of 64.5%, a viability, T/C [8] of 54.4% and a viability, T/C [9] of 45.9%. The viability, T/C [10] was 39.2%, the viability, T/C [11] was 18.9% and the viability, T/C [12] was 5.59%. It also gave a viability, T/C [13] of 13.4%, a viability, T/C [14] of 10.1% and a viability, T/C [15] of 8.26%. It also gave a viability, T/C [16] of 9.68%, a viability, T/C [17] of 5.72% and a viability, T/C [18] of 3.41%. For the same compound, the viability, T/C [19] was 9.78%, the viability, T/C [20] was 9.55% and the viability, T/C [21] was 8.53%. It also gave a viability, T/C [22] of 6.94%, a viability, T/C [23] of 5.01% and a viability, T/C [24] of 4.53%. It also gave a viability, T/C [25] of 8.51%, a viability, T/C [26] of 8.26% and a viability, T/C [27] of 8.32%. It also gave a viability, T/C [28] of 6.7%, a viability, T/C [29] of 5.13% and a viability, T/C [30] of 2.61%. It also gave a viability, T/C [31] of 10.1%, a viability, T/C [32] of 10.7% and a viability, T/C [33] of 8.57%. The viability, T/C [34] was 7.75%, the viability, T/C [35] was 4.82% and the viability, T/C [36] was 2.48%. The viability, T/C [37] was 12.3%, the viability, T/C [38] was 10.4% and the viability, T/C [39] was 8.76%. It also gave a viability, T/C [40] of 8.59%, a viability, T/C [41] of 5.88% and a viability, T/C [42] of 2.34%.
In the case of O=C(c1cc(Cc2n[nH]c(=O)c3ccccc23)ccc1F)N1CCN(C(=O)C2CC2)CC1, the viability, T/C (compound 0.0316 µM) is reported as 99.6% and 98.6%, the viability, T/C (compound 0.1 µM) is reported as 94.2% and 88% and the viability, T/C (compound 0.316 µM) is reported as 91.3% and 90.8%. For the same compound, the viability, T/C (compound 1 µM) was 87.9% and 100%, the viability, T/C (compound 3.16 µM) was 93.2% and 101% and the viability, T/C (compound 10 µM) was 73.2% and 66.8%. For the same compound, the IC50 (curve of compound) was > 10000 nM.
For C=C(F)C(=O)N1CCN(c2nc(OCC3CCCN3C)nc3c2CCN(c2cccc4cccc(Cl)c24)C3)CC1CC#N (stereo not drawn) + CNC(=O)c1ccc(Nc2nc(OC3CCCC3)c3c(-c4ccc5nc(C)oc5c4)c[nH]c3n2)c(OC)c1, the IC50 [1] was 1810 nM, the IC50 [2] was < 31.6 nM and the IC50 [3] was < 31.6 nM. The IC50 [4] was < 31.6 nM, the IC50 [5] was < 31.6 nM and the IC50 [6] was < 31.6 nM. For the same compound, the viability, T/C [7] was 55%, the viability, T/C [8] was 57.6% and the viability, T/C [9] was 57%. It also gave a viability, T/C [10] of 57.2%, a viability, T/C [11] of 43.8% and a viability, T/C [12] of 0.11%. The viability, T/C [13] was 11.2%, the viability, T/C [14] was 9.34% and the viability, T/C [15] was 8.18%. It also gave a viability, T/C [16] of 10.4%, a viability, T/C [17] of 10.7% and a viability, T/C [18] of 0.09%. The viability, T/C [19] was 10.5%, the viability, T/C [20] was 8.47% and the viability, T/C [21] was 10.6%. The viability, T/C [22] was 8.2%, the viability, T/C [23] was 8.71% and the viability, T/C [24] was 0.79%. It also gave a viability, T/C [25] of 8.55%, a viability, T/C [26] of 9.75% and a viability, T/C [27] of 8.98%. It also gave a viability, T/C [28] of 8.73%, a viability, T/C [29] of 11.3% and a viability, T/C [30] of 0.08%. The viability, T/C [31] was 11.6%, the viability, T/C [32] was 10% and the viability, T/C [33] was 9.7%. For the same compound, the viability, T/C [34] was 10.9%, the viability, T/C [35] was 9.36% and the viability, T/C [36] was 0.12%. For the same compound, the viability, T/C [37] was 11.1%, the viability, T/C [38] was 11.5% and the viability, T/C [39] was 9.68%. It also gave a viability, T/C [40] of 10.4%, a viability, T/C [41] of 11.6% and a viability, T/C [42] of 0.19%.
